According to article PMC3082472 (2010):

System: RNA probe (thiol / methylene blue E-AB aptamer) (RNA, aptamer) GGGACUUGGUUUAGGUAAUGAGUCCC
Assay: electrochemical aptamer-based sensor, square wave voltammetry
Settings: 100 mM NaCl, 5 mM MgCl2; 20 mM Tris, pH 7.5; aptamer immobilised on gold

dissociation constants: 281 µM
SMILES: NC[C@H]1O[C@H](O[C@H]2[C@H](O)[C@@H](O[C@H]3O[C@H](CO)[C@@H](O)[C@H](N)[C@H]3O)[C@H](N)C[C@@H]2N)[C@H](O)[C@@H](O)[C@@H]1O
